Consider twelve compounds from PMC10213809 (Cell Reports Medicine, 2023).

“Also recorded” adds a separate entry of the source. A value given as a limit tells only on which side of the number the result lay.

One data set relates to RSV. The class given is cell-based, respiratory syncytial virus.
Data set [1] relates to CHIKV. Put plainly: Viral-mediated cytopathic effect / cell death in infected HFF-1 cells. The format is cell-based, Chikungunya virus. The settings on record: HFF-1, 48 hpi, effective concentration. (Cytopathic effects are the visible damage that an infection or toxin causes in cultured cells.)
In data set [2] the test system is arboviruses (CHIKV, WNV, ZIKV). Put plainly: qRT-PCR of viral genome replication in drug-treated fibroblasts at 48 hpi. The format is cell-based.
Data set [3] deals with CHIKV. The class given is cell-based, Chikungunya virus.
Data set [4] has as its system CHIKV. The experiment in a line: RNA sequencing of drug-treated CHIKV-infected HFF-1 cells. The class given is cell-based, Chikungunya virus. The conditions noted are these: for viral genome reads of the total reads: RNA sequencing.
In data set [5] the test system is WNV. The class given is cell-based, West Nile virus. The settings on record: for antiviral activity (inhibition) against WNV, primary screen: HFF-1, moderate antiviral activity; for infectivity against WNV at the highest non-toxic dose: 100 μg/mL; for infectivity against WNV at the highest non-toxic dose / inhibition of WNV, primary screen: HFF-1.
Data set [6] relates to STING-IRF3 and STING-NF-κB pathways. The class given is cell-based, human. The conditions noted are these: HFF-1, 2 h post-stimulation.
For data set [7], the system named is TBK-IRF3 signaling cascade. The class given is cell-based, human. The settings on record: HFF-1, pretreatment, uninfected cells.
For data set [8], the system named is CHIKV. The class given is cell-based, Chikungunya virus. The source holds these as a separate data set.
Data set [9] deals with WNV. The class given is cell-based, West Nile virus.
Data set [10] has as its system CHIKV. The format is cell-based, Chikungunya virus. The settings on record: for inhibition of CHIKV, primary screen: HFF-1.
For another data set, the system named is ZIKV. The format is cell-based, Zika virus. The conditions noted are these: HFF-1; for infectivity against ZIKV at the highest non-toxic dose: 100 μg/mL.
In data set [11] the test system is HFF-1 cells. The experiment in a line: Intracellular ATP level. The class given is cell-based, human. The settings on record: CHIKV-infected HFF-1, 48 hpi.
The subject of data set [12] is HFF-1 cells. The experiment in a line: NAD/NADH-Glo assay, intracellular NADH. The format is cell-based, human. The settings on record: HFF-1, 48 hpi.
For data set [13], the system named is CHIKV (strain 181/25). Put plainly: Histopathology and IHC of CHIKV-infected mouse footpad. The class given is in vivo.
In data set [14] the test system is CHIKV (strain 181/25). Put plainly: CHIKV arthritis mouse model.
For data set [15], the system named is CHIKV. The format is cell-based, Chikungunya virus. The conditions noted are these: read-out: IC50, antiviral activity against CHIKV; human fibroblasts (HFF-1), eight-dose response.

For orientation: IC50 means the concentration needed to halve the response being measured.

With `O=c1cnn([C@@H]2O[C@H](CO)[C@@H](O)[C@H]2O)c(=O)[nH]1` [6-azauridine, 6-Azauridine], in the data set on RSV, the “inhibition of RSV infection” value is “efficient inhibition”.

Regarding Scleroglucan, the “viral-mediated cytopathic effect (CPE)” value in the data set on CHIKV [1] is on record as “prevented CPE”. Moreover, the “viral genome replication (qRT-PCR)” value in data set [2] is listed as “significantly reduced”. For the same compound, in the data set with CHIKV [3], the “CHIKV productive infection / replication in PSC-CMs” value is listed as “inhibited; also recorded: moderately reducing”. Further, the “viral genome reads of the total reads” value in the data set with CHIKV [4] (CHIKV-infected HFF-1, 24 hpi) is 63%. The “antiviral activity (inhibition) against WNV, primary screen” value (“antiviral activity (inhibition)” for short) in the data set on WNV [5] is on record as greater than 50%. In data set [6], the “phosphorylation of IRF3 (Ser386)” value is on record as “only a few cells have a cytoplasmic form of phospho-IRF3” and the “phosphorylation of STING (Ser366)” value is given as “did not have detectable levels”. The “phosphorylation of IRF3 (western blot)” value in data set [7] is given as “only the basal level”.

For `CCC(CC)COC(=O)[C@H](C)N[P@](=O)(OC[C@H]1O[C@@](C#N)(c2ccc3c(N)ncnn23)[C@H](O)[C@@H]1O)Oc1ccccc1` [Remdesivir], in the data set on CHIKV [8], the “antiviral activity against CHIKV” value was “no effective antiviral activity; also recorded: not active”. In addition, in the data set on RSV, the “inhibition of RSV infection” value is given as “efficient inhibition”. Also, the “antiviral activity against WNV” value in the data set with WNV [9] was “no effective antiviral activity; also recorded: not active”.

`Nc1nc2c(ncn2[C@@H]2O[C@@H]3COP(=O)(O)O[C@H]4[C@@H](O)[C@H](n5cnc6c(N)ncnc65)O[C@@H]4COP(=O)(O)O[C@H]3[C@H]2O)c(=O)[nH]1` [3'3'-cGAMP, 3′,3′-cGAMP]: in the data set on CHIKV [1], the “viral-mediated cytopathic effect (CPE)” value is “prevented CPE”. Besides, in the data set with WNV [5], the “infectivity against WNV at the highest non-toxic dose” value was “below-detectable infectivity”. Also, the “phosphorylation of IRF3 (western blot)” value in [7] is listed as “induced phosphorylation of IRF3”. Further, the “infectivity against CHIKV at the highest non-toxic dose” value in the data set with CHIKV [10] is listed as “below-detectable infectivity”. In the data set on ZIKV, the “infectivity against ZIKV at the highest non-toxic dose” value was “below-detectable infectivity”.

Regarding `Nc1nc2c(ncn2[C@@H]2O[C@@H]3COP(=O)(O)O[C@H]4[C@@H](O)[C@H](n5cnc6c(=O)[nH]c(N)nc65)O[C@@H]4COP(=O)(O)O[C@H]3[C@H]2O)c(=O)[nH]1` [c-di-GMP], in the data set on WNV [5], the “inhibition of WNV, primary screen” value is reported as “potent inhibition”. For the same compound, in the data set on CHIKV [10], the “effect on viral replication, primary screen (Figure 1C)” value was “enhanced viral replication” and the “inhibition of CHIKV, primary screen” value is recorded as “not against CHIKV”. Besides, the “inhibition of ZIKV, primary screen” value with ZIKV is recorded as “potent inhibition”.

Regarding `Nc1ncnc2c1ncn2[C@@H]1O[C@@H]2COP(=O)(O)O[C@H]3[C@@H](O)[C@H](n4cnc5c(=O)[nH]cnc54)O[C@@H]3COP(=O)(O)O[C@H]2[C@H]1O` [cAIMP], the “viral-mediated cytopathic effect (CPE)” value with CHIKV [1] was “prevented CPE”. For the same compound, in [2], the “viral genome replication (qRT-PCR)” value was “significantly reduced”. In the data set on HFF-1 cells [11], the “intracellular ATP” value is “prevented ATP depletion”. Also, in the data set on CHIKV [4] (CHIKV-infected HFF-1), the “HEATR9 expression induced by CHIKV” value was “reversed the induction”. Moreover, in the data set with CHIKV [4] (CHIKV-infected HFF-1, 24 hpi), the “reduction of viral gene expression compared with untreated infected cells” value was “about 880 fold” and the “viral genome reads of the total reads” value is 0.1%. Also, the “nicotinamide adenine dinucleotide (NADH) levels” value in the data set with HFF-1 cells [12] is given as “increased”. Moreover, the “infectivity against WNV at the highest non-toxic dose” value in the data set with WNV [5] is “below-detectable infectivity”. Moreover, the “inflammatory cellular infiltration, therapeutic” value in the data set on CHIKV (strain 181/25) [13] (cAIMP 10 mg/kg i.p. at 6 or 12 hpi, left footpad) was “reducing”. Moreover, the “pathological changes and left-rear footpad swelling (histopathology)” value with CHIKV (strain 181/25) [13] (cAIMP pretreatment, 7 dpi) is listed as “prevented”. For the same compound, the “phosphorylation of IRF3 (western blot)” value in data set [7] is reported as “induced phosphorylation of IRF3”. In the data set with CHIKV [10], the “antiviral activity, post-treatment of CHIKV-infected cells” value is recorded as “potent antiviral activity” and the “infectivity against CHIKV at the highest non-toxic dose” value is reported as “below-detectable infectivity”. For the same compound, the “volume of footpad swelling, chronic long-term follow-up” value with CHIKV (strain 181/25) [14] (14-month-old mice, cAIMP pretreatment, up to 2 months post-infection) is “significantly reduced”. In the data set on CHIKV (strain 181/25) [14] (14-month-old mice, cAIMP pretreatment, up to 2 months post-infection (59 dpi)), the “virus replication, chronic long-term follow-up” value was “significantly reduced”. For the same compound, in the data set with CHIKV (strain 181/25) [14] (mouse, cAIMP 10 mg/kg i.p. at 6 or 12 hpi, left footpad), the “inflammatory gene expression, therapeutic” value is reported as “reducing”. In the data set with CHIKV (strain 181/25) [14] (mouse, cAIMP 10 mg/kg i.p. single dose at 6 or 12 hpi), the “viral replication, therapeutic” value is on record as “reducing”. Moreover, in the data set on CHIKV (strain 181/25) [14] (mouse, cAIMP 10 mg/kg i.p. single dose at 6 or 12 hpi, up to 21 dpi), the “footpad swelling, therapeutic” value is listed as “protected the animals from significant footpad swelling”. For the same compound, the “CHIKV-mediated footpad swelling, prophylactic” value in the data set with CHIKV (strain 181/25) [14] (mouse, cAIMP 10 mg/kg i.p. single dose at day -1, observed 7 days) is recorded as “significantly prevented”. Besides, in the data set on CHIKV (strain 181/25) [14] (mouse, cAIMP at 6 or 12 h post-CHIKV infection), the body weight changes entry was “No significant body weight changes”. Further, the “reduction in viral genome replication in left-rear footpad (qRT-PCR)” value in the data set with CHIKV (strain 181/25) [14] (mouse, cAIMP pretreatment 10 mg/kg i.p., day 3) came out at 2 log. In the data set with CHIKV (strain 181/25) [14] (mouse, cAIMP-pretreated, 7 dpi), the “expression of inflammatory genes Ccl2, Il-6 and Il-10 in left footpad” value is given as “significant downregulation”. For the same compound, the “infectivity against ZIKV at the highest non-toxic dose” value in the data set with ZIKV is “below-detectable infectivity”.

As to `Nc1ncnc2c1ncn2[C@@H]1O[C@@H]2COP(=O)(O)O[C@H]3[C@@H](O)[C@H](n4cnc5c(N)ncnc54)O[C@@H]3COP(=O)(O)O[C@H]2[C@H]1O` [c-di-AMP], the “antiviral activity (inhibition)” value in the data set on WNV [5] is greater than 50%.

As for `CCCCCCCCCCCCCCCC(=O)OCC(CSC[C@H](N)C(=O)N[C@@H](CO)C(=O)N[C@@H](CCCCN)C(=O)N[C@@H](CCCCN)C(=O)N[C@@H](CCCCN)C(=O)N[C@@H](CCCCN)C(=O)Nc1ccc(Cn2c(O)nc3c(N)nc(NCCCC)nc32)cc1)OC(=O)CCCCCCCCCCCCCCC` (some centres unmarked) [Adilipoline(CL413)], the “effect on viral replication, primary screen (Figure 1C)” value in the data set with CHIKV [10] is recorded as “enhanced viral replication”.

For the compound `CC(=O)N[C@@H]1[C@@H](O[C@H](C)C(=O)N[C@@H](C)C(=O)N[C@H](CCC(=O)O)C(N)=O)[C@H](O)[C@@H](CO)O[C@H]1O` [MDP], in the data set with WNV [5], the “inhibition of WNV, primary screen” value is “potent inhibition”. Also, the “inhibition of CHIKV, primary screen” value in the data set on CHIKV [10] is given as “not against CHIKV”. For the same compound, in the data set on ZIKV, the “inhibition of ZIKV, primary screen” value is on record as “potent inhibition”.

Turning to `CCn1nc(C)cc1C(=O)Nc1nc2cc(C(N)=O)cc(OC)c2n1C/C=C/Cn1c(NC(=O)c2cc(C)nn2CC)nc2cc(C(N)=O)cc(OCCCN3CCOCC3)c21` [diABZI], the IC50 with CHIKV [15] turned out to be 10.1 nM. The “viral-mediated cytopathic effect (CPE)” value with CHIKV [1] was “prevented CPE”. Moreover, in data set [2], the “viral genome replication (qRT-PCR)” value is reported as “significantly reduced”. Also, the “phosphorylation of IRF3 (western blot)” value in data set [7] is listed as “induced phosphorylation of IRF3”. Further, the “antiviral activity, post-treatment of CHIKV-infected cells” value in the data set on CHIKV [10] is reported as “potent antiviral activity”.

With `CC(C)Cn1cnc2c(N)nc3ccccc3c21` [Imiquimod], in data set [2], the “viral genome replication (qRT-PCR)” value was “significantly reduced”. In addition, in the data set with WNV [5], the “inhibition of WNV, primary screen” value is “potent inhibition” and the “antiviral activity (inhibition)” value is greater than 50%. In the data set on CHIKV [10], the “inhibition of CHIKV, primary screen” value is “not against CHIKV”. Moreover, the “inhibition of ZIKV, primary screen” value in the data set with ZIKV is given as “potent inhibition”.

As to `Nc1nc2c(ncn2[C@@H]2O[C@@H]3COP(=O)(O)O[C@H]4[C@@H](O)[C@H](n5cnc6c(N)ncnc65)O[C@@H]4COP(=O)(O)O[C@@H]2[C@@H]3O)c(=O)[nH]1` [2'3'-cGAMP, 2′,3′-cGAMP], in the data set with CHIKV [1], the “viral-mediated cytopathic effect (CPE)” value is given as “prevented CPE”. Besides, the “viral genome replication (qRT-PCR)” value in data set [2] was “significantly reduced”. The “infectivity against WNV at the highest non-toxic dose” value in the data set on WNV [5] is listed as “below-detectable infectivity”. The “phosphorylation of IRF3 (western blot)” value in [7] is “induced phosphorylation of IRF3”. Further, the “infectivity against CHIKV at the highest non-toxic dose” value in the data set with CHIKV [10] is given as “below-detectable infectivity”. Moreover, the “infectivity against ZIKV at the highest non-toxic dose” value in the data set on ZIKV is “below-detectable infectivity”.
